Test results published in BindingDB's records for patent US20250129027 (Apogee Pharmaceuticals, 2025).

Tests used:
[1] = target: T1, Fatty-acid amide hydrolase 1 (Homo sapiens, UniProt O00519); assay: In Vitro Inhibition on FAAH and MAGL Activity Assay
T1 sequence (O00519 whole entry): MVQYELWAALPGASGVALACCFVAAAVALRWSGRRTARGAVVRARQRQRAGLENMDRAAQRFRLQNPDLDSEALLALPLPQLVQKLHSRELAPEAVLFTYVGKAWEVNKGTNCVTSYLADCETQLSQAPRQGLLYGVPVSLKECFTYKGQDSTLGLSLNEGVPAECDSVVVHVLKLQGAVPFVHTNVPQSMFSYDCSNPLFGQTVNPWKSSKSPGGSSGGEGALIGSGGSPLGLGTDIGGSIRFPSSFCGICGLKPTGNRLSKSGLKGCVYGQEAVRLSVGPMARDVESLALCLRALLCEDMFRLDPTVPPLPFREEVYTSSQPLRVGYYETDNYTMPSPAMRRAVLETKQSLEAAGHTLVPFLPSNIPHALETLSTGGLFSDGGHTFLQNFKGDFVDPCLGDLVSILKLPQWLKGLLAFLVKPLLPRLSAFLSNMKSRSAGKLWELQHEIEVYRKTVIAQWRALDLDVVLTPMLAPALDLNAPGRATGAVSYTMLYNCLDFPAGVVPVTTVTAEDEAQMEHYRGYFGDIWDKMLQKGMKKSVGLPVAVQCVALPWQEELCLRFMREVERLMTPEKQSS
Excerpt: (§1) In brief, FAAH hydrolyzes AMC arachidonoyl amide resulting in the release of the fluorescent product, while the inhibitor will inhibit the FAAH activity and thus reduce the fluorescent signal. […] The absorbance of the yellow product can be analyzed using the plate reader.

[2] = target: T2, Monoglyceride lipase (Homo sapiens, UniProt Q99685); assay: as above
T2 sequence (Q99685 whole entry): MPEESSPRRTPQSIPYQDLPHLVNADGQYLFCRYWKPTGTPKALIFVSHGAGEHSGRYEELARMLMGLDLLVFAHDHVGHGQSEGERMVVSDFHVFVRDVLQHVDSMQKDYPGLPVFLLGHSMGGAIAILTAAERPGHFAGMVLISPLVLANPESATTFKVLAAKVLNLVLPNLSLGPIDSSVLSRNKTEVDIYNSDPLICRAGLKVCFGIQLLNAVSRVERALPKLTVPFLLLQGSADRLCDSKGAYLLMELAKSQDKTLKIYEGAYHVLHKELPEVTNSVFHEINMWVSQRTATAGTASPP
Excerpt: as §1

| Structure (SMILES) | IC50 [1] [µM] | IC50 [2] [µM] |
| --- | --- | --- |
| CN(C(=O)Oc1cccc(-c2cncc(-c3nnco3)c2)c1)C1CCCCCC1 [US20250129027, Example 144] | > 1 | > 10 |
| CCCCCCCNC(=O)Oc1cccc(-c2cncc(C#N)c2)c1 [US20250129027, Example 26] | – | > 10 |
| CCCCCCCCNC(=O)Oc1ccc(OC)c(-c2cncc(-c3cccs3)c2)c1 [US20250129027, Example 65] | – | 10 |
| CCCCCCCCNC(=O)Oc1cccc(-c2cncc(C(F)(F)F)c2)c1 [US20250129027, Example 30] | – | > 10 |
| CCCCCCCCNC(=O)Oc1cccc(-c2cncc(C(=O)OCC)c2)c1 [US20250129027, Example 3] | – | > 10 |
| CCCCCCCCNC(=O)Oc1cccc(-c2cncc(C(=O)OC)c2)c1 [US20250129027, Example 10] | – | > 1 |
| CN(C)c1ccc(OC(=O)NC2CCCC2)cc1-c1cncc(-c2nnco2)c1 [US20250129027, Example 183] | > 1 | > 10 |
| CCCCCCCCNC(=O)Oc1cccc(-c2cncc(-c3nnco3)c2)c1 [US20250129027, Example 130] | – | > 10 |
| CCCCCCCCNC(=O)Oc1cccc(-c2cncc(C#N)c2)c1 [US20250129027, Example 27] | – | > 10 |
| CCCCCCCCCCCCCCNC(=O)Oc1cccc(-c2cncc(C(=O)NO)c2)c1 [US20250129027, Example 24] | < 0.01 | > 10 |
| CCCCCCCCNC(=O)Oc1ccc(O)c(-c2cncc(-c3nnco3)c2)c1 [US20250129027, Example 157] | – | > 10 |
| CCCCCCNC(=O)Oc1cccc(-c2cncc(-c3nnco3)c2)c1 [US20250129027, Example 128] | – | > 50 |
| COc1ccc(OC(=O)NC2CCCCC2)cc1-c1cncc(-c2nncs2)c1 [US20250129027, Example 217] | – | > 10 |
| CCCCCCCCCCCCCCNC(=O)Oc1cccc(-c2cncc(-c3nnco3)c2)c1 [US20250129027, Example 132] | < 0.02 | < 10 |
| CCCCCCCCNC(=O)Oc1cccc(-c2cncc(-c3ccco3)c2)c1 [US20250129027, Example 47] | – | 10 |
| CCCCCCCNC(=O)Oc1cccc(-c2cncc(C(=O)OC)c2)c1 [US20250129027, Example 9] | – | > 10 |
| CCCCCCCCNC(=O)Oc1ccc(OC)c(-c2cncc(-c3ccc[nH]3)c2)c1 [US20250129027, Example 41] | – | > 10 |
| CCCCCCCNC(=O)Oc1ccc(O)c(-c2cncc(-c3nnco3)c2)c1 [US20250129027, Example 156] | – | > 20 |
| O=Cc1cncc(-c2cccc(OC(=O)NC3CCCCC3)c2)c1 [US20250129027, Example 19] | 1 | > 10 |
| CCCCCNC(=O)Oc1cccc(-c2cncc(C(=O)OCC)c2)c1 [US20250129027, Example 1] | – | > 10 |
| CCCCCCCCNC(=O)Oc1ccc(OC(F)(F)F)c(-c2cncc(-c3ncco3)c2)c1 [US20250129027, Example 88] | – | 10 |
| CCCCCNC(=O)Oc1cccc(-c2cncc(C(=O)OC)c2)c1 [US20250129027, Example 8] | – | > 10 |
| CCCCCCCCNC(=O)Oc1ccc(OC)c(-c2cncc(-c3nnco3)c2)c1 [US20250129027, Example 167] | – | > 10 |
| CCCCCCCCCCCCNC(=O)Oc1cccc(-c2cncc(-c3nnco3)c2)c1 [US20250129027, Example 131] | – | < 10 |
| CCCCCCCNC(=O)Oc1ccc(OC)c(-c2cncc(-c3nnco3)c2)c1 [US20250129027, Example 166] | – | > 10 |
